Measured values taken from patent US10259847B2, “Beta-hairpin peptidomimetics” (POLYPHOR AG, priority 2014, dated 2019).
Where a SMILES comes first, the peptide text is derived from it. [ ]: non-standard residue; d: D form. Tle = CC(C)(C)[C@H](N)C(=O)O; dDab = NCC[C@@H](N)C(=O)O; Orn = NCCC[C@H](N)C(=O)O; Dab = NCC[C@H](N)C(=O)O; dAze = O=C(O)[C@H]1CCN1; Dap = NC[C@H](N)C(=O)O

Experiments:
Format in all cases: cell-based
[1] = tested on: human red blood cells (hRBC); test: Hemolysis of human red blood cells; conditions: red cells of human, 1 h, 100
Description: Stock solutions were kept at +4° C., light protected.
Percent hemolysis was calculated as follows: (OD540peptide/OD540H2O)×100%.

[2] = tested on: Acinetobacter baumannii DSM 30008; conditions: DSM 30008
Summary of the method: (§1)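 Peptide MICs were determined by NCCLS broth microdilution in cation-adjusted Mueller-Hinton II broth. Inoculum was about 10^6 CFU/mL, matched to 0.5 McFarland, with peptides in two-fold serial dilutions. The broth contained Polysorbate 80 at 0.002% final concentration.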

[3] = tested on: Klebsiella pneumoniae ATCC 13883; conditions: ATCC 13883
Summary of the method: as §1

[4] = tested on: Escherichia coli ATCC 25922; conditions: ATCC 25922
Summary of the method: as §1

Row | Compound | Hemolysis at 100 μg/mL [1] [%] | Acinetobacter baumannii DSM 30008 MIC [2] [µg/mL] | Klebsiella pneumoniae ATCC 13883 MIC [3] [µg/mL] | Escherichia coli ATCC 25922 MIC [4] [µg/mL]
1 | CC(C)[C@@H]1NC(=O)[C@@H]2CCCN2C(=O)[C@H]2CCN2C(=O)[C@H]([C@@H](C)O)NC(=O)[C@H](CO)NC(=O)[C@H](C(C)(C)C)NC(=O)[C@H](CCN)NC(=O)[C@H](Cc2c[nH]c3ccccc23)NC(=O)[C@H](CCN)NC(=O)[C@@H](CCN)NC(=O)[C@H](CN)NC(=O)[C@H](CCN)NC(=O)[C@H](Cc2ccc(O)cc2)NC(=O)[C@H](CN)NC1=O [Example 41, cyclo(-Val-Dap-Tyr-Dab-Dap-^DDab-Dab-Trp-Dab-tBuGly-Ser-Thr-^DAzt-Pro-)] (cyclo([Dab][Dap][dDab][Dab]W[Dab][Tle]ST[dAze]PV[Dap]Y)) | 1 | 1 | 0.25 | 0.5
2 | CC(C)C[C@@H]1NC(=O)[C@H]2CCCN2C(=O)[C@H](CO)NC(=O)[C@H](C)NC(=O)[C@H](C(C)(C)C)NC(=O)[C@H](CCN)NC(=O)[C@H](Cc2c[nH]c3ccccc23)NC(=O)[C@H](CCN)NC(=O)[C@@H](CCN)NC(=O)[C@H](CCCN)NC(=O)[C@H](CCN)NC(=O)[C@H](Cc2ccc(O)cc2)NC(=O)[C@H](CN)NC(=O)[C@H](Cc2ccccc2)NC1=O [Example 42, cyclo(-Phe-Dap-Tyr-Dab-Orn-^DDab-Dab-Trp-Dab-tBuGly-Ala-Ser-^DPro-Leu-)] (cyclo(AS[dP]LF[Dap]Y[Dab][Orn][dDab][Dab]W[Dab][Tle])) | 1 | 4 | 1 | 1
3 | C[C@@H]1NC(=O)[C@H](C(C)(C)C)NC(=O)[C@H](CCN)NC(=O)[C@H](Cc2c[nH]c3ccccc23)NC(=O)[C@H](CCN)NC(=O)[C@@H](CCN)NC(=O)[C@H](CCCN)NC(=O)[C@H](CCN)NC(=O)[C@H](Cc2ccc(O)cc2)NC(=O)[C@H](CN)NC(=O)[C@H](Cc2ccccc2)NC(=O)[C@H](Cc2ccccc2)NC(=O)[C@H]2CCCN2C(=O)[C@H](CO)NC1=O [Example 43, cyclo(-Phe-Dap-Tyr-Dab-Orn-^DDab-Dab-Trp-Dab-tBuGly-Ala-Ser-^DPro-Phe-)] (cyclo(AS[dP]FF[Dap]Y[Dab][Orn][dDab][Dab]W[Dab][Tle])) | 1 | 1 | 0.25 | 1
4 | C[C@@H]1NC(=O)[C@H](C(C)(C)C)NC(=O)[C@H](CCN)NC(=O)[C@H](Cc2c[nH]c3ccccc23)NC(=O)[C@H](CCN)NC(=O)[C@@H](CCN)NC(=O)[C@H](CCCN)NC(=O)[C@H](CCN)NC(=O)[C@H](Cc2ccc(O)cc2)NC(=O)[C@H](CN)NC(=O)[C@H](Cc2ccccc2)NC(=O)[C@H](Cc2ccc(O)cc2)NC(=O)[C@H]2CCCN2C(=O)[C@H](CO)NC1=O [Example 44, cyclo(-Phe-Dap-Tyr-Dab-Orn-^DDab-Dab-Trp-Dab-tBuGly-Ala-Ser-^DPro-Tyr-)] (cyclo(AS[dP]YF[Dap]Y[Dab][Orn][dDab][Dab]W[Dab][Tle])) | 0 | 1 | 0.25 | 0.5
